Test results reported in patent US20100093714A1, “AMIDES OF THIENO[2,3-d]PYRIMIDINE AND THEIR USE AS ADENOSINE A2a RECEPTOR ANTAGONISTS” (priority 2008, published 2010).

What was measured:
[1] = molecular target: T1, human adenosine A1 receptor (Homo sapiens, UniProt P30542); assay: Adenosine A1 Receptor Functional Assay (A1GAL2); format: cell-based; conditions: CHO-K1 cells, cAMP inducible beta-galactosidase reporter, 4nM r-PIA/1 uM Forskolin agonist challenge
T1 construct: expressed in transfected cells; host or cells: CHO-K1
T1 sequence (P30542 1-326): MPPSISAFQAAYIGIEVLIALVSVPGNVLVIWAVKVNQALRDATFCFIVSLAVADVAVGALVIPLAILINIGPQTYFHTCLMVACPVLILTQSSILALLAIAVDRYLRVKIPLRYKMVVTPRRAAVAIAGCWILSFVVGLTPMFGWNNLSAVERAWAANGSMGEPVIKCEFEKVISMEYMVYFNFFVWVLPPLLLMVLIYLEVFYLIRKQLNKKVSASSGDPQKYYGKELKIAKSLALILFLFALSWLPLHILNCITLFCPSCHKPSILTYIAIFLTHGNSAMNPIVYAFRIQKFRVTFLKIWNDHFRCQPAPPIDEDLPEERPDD
Protocol: (§1) To initiate the functional assay, cryopreserved CHO-K1 cells overexpressing the human adenosine A1 receptor and containing a cAMP inducible beta-galactosidase reporter gene were thawed, centrifuged, DMSO containing media removed, and then seeded with fresh culture media into clear 384-well tissue culture treated plates (BD #353961) at a concentration of 10K cells/well. Prior to assay, these plates were cultured for two days at 37° C., 5% CO2, 90% Rh. On the day of the functional assay, culture media was removed and replaced with 45 uL assay medium (Hams/F-12 Modified (Mediatech #10-080CV) supplemented w/0.1% BSA). Test compounds were diluted and 11 point curves created at a 1000× concentration in 100% DMSO. Immediately after addition of assay media to the cell plates, 50 nL of the appropriate test compound antagonist or agonist control curves were added to cell plates using a Cartesian Hummingbird. Compound curves were allowed to incubate at room temperature on cell plates for approximately 15 minutes before addition of a 4nM r-PIA (Sigma P4532)/1 uM Forskolin (Sigma F3917) agonist challenge (5 uL volume). A control curve of r-PIA in 1 uM Forskolin, a DMSO/Media control, and a single dose of Forskolin were also included on each plate. After additions, cell plates were allowed to incubate at 37° C., 5% CO2, 90% Rh for 5.5-6 hours. After incubation, media was removed, and cell plates were washed 1×50 uL with DPBS w/o Ca & Mg (Mediatech 21-031-CV). Into dry wells, 20 uL of 1× Reporter Lysis Buffer (Promega E3971 (diluted in dH2O from 5× stock)) was added to each well and plates frozen at −20° C. overnight. For β-galactosidase enzyme calorimetric assay, plates were thawed out at room temperature and 20 μL 2× assay buffer (Promega) was added to each well. Color was allowed to develop at 37° C., 5% CO2, 90% Rh for 1-1.5 h or until reasonable signal appeared. The calorimetric reaction was stopped with the addition of 60 μL/well 1M sodium carbonate. Plates were counted at 405 nm on a SpectraMax Microplate Reader (Molecular Devices). Data was analyzed in Microsoft Excel and IC/EC50 curves were fit using a standardized macro.

[2] = molecular target: T2, human adenosine A2a receptor (Homo sapiens, UniProt P29274); assay: Adenosine A2a Receptor Functional Assay (A2AGAL2); format: cell-based; conditions: CHO-K1 cells, cAMP inducible beta-galactosidase reporter, 15 nM NECA agonist challenge
T2 construct: expressed in transfected cells; host or cells: CHO-K1
T2 sequence (P29274 whole entry): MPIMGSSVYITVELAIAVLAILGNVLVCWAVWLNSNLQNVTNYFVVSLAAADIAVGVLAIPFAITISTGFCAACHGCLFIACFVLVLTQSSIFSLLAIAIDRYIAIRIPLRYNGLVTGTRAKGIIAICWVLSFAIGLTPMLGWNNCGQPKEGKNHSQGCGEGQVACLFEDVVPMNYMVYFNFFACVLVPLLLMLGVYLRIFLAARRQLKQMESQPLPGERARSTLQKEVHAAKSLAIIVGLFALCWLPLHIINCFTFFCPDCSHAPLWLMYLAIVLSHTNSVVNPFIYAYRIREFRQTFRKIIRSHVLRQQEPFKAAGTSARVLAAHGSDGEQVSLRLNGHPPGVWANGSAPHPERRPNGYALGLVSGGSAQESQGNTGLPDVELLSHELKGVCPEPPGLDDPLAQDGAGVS
Protocol: as §1, with “A2a” for “A1”, “15 nM NECA” for “4nM r-PIA”, “E2387)” for “P4532)/1 uM Forskolin (Sigma F3917)”, “NECA,” for “r-PIA in 1 uM Forskolin,”, “Forskolin (Sigma F3917)” for “Forskolin”

[3] = molecular target: T3, human A2a adenosine receptor (Homo sapiens, UniProt P29274); assay: Ligand Binding Assay for Adenosine A2a Receptor (A2A-B); conditions: HEK293 cell plasma membrane, radioligand [3H]CGS21680
T3 construct: purchased PerkinElmer RB-HA2a; host or cells: HEK293 plasma membrane
T3 sequence (P29274 whole entry): as above
Protocol: Ligand binding assay of adenosine A2a receptor was performed using plasma membrane of HEK293 cells containing human A2a adenosine receptor (PerkinElmer, RB-HA2a) and radioligand [^3H]CGS21680 (PerkinElmer, NET1021). Assay was set up in 96-well polypropylene plate in total volume of 200 μL by sequentially adding 20 μL 1:20 diluted membrane, 130 μL assay buffer (50 mM Tris·HCl, pH7.4 10 mM MgCl2, 1 mM EDTA) containing [^3H] CGS21680, 50 μL diluted compound (4×) or vehicle control in assay buffer. Nonspecific binding was determined by […] NECA. Reaction was carried out at room temperature for 2 hours before filtering through 96-well GF/C filter plate pre-soaked in 50 mM Tris·HCl, pH7.4 containing 0.3% polyethylenimine. Plates were then washed 5 times with cold 50 mM Tris·HCl, pH7.4, dried and sealed at the bottom. Microscintillation fluid 30 μL was added to each well and the top sealed. Plates were counted on Packard Topcount for [^3H]. Data was analyzed in Microsoft Excel and GraphPad Prism programs. (Varani, K.; Gessi, S.; Dalpiaz, A.; Borea, P. A. British Journal of Pharmacology, 1996, 117, 1693)

Row | SMILES | Ki [1] [nM] | Ki [2] [nM] | Ki [3] [nM]
1 | Cc1csc(-c2nc(N)c3cc(C(=O)N4CCN(Cc5ccccn5)CC4)sc3n2)n1 [Example 28, [4-Amino-2-(4-methyl-thiazol-2-yl)-thieno[2,3-d]pyrimidin-6-yl]-(4-pyridin-2-ylmethyl-piperazin-1-yl)-methanone] | > 1040 | 160 | –
2 | Nc1nc(-c2ccc(C3CC3)o2)nc2sc(C(=O)N3CCOCC3)cc12 [Example 29, [4-Amino-2-(5-cyclopropyl-furan-2-yl)-thieno[2,3-d]pyrimidin-6-yl]-morpholin-4-yl-methanone] | > 1070 | 236 | –
3 | CC(C)(C)N1CCN(C(=O)c2cc3c(N)nc(-c4ccc(C5CC5)o4)nc3s2)CC1 [Example 32, [4-Amino-2-(5-cyclopropyl-furan-2-yl)-thieno[2,3-d]pyrimidin-6-yl]-(4-tert-butyl-piperazin-1-yl)-methanone] | > 1040 | 1240 | –
4 | Cc1csc(-c2nc(N)c3cc(C(=O)N4CCN(c5nccs5)CC4)sc3n2)n1 [Example 33, [4-Amino-2-(4-methyl-thiazol-2-yl)-thieno[2,3-d]pyrimidin-6-yl]-(4-thiazol-2-yl-piperazin-1-yl)-methanone] | 978 | 81.9 | –

Results, then the compound that gave them:

Row | Ki [1] [nM] | Ki [2] [nM] | Ki [3] [nM] | SMILES
5 | 900 | 37.9 | 22 | N#Cc1cccc(-c2nc(N)c3cc(C(=O)N4CCOCC4)sc3n2)c1 [Example 2, 3-[4-Amino-6-(morpholine-4-carbonyl)-thieno[2,3-d]pyrimidin-2-yl]-benzonitrile]
6 | 851 | 24.9 | 45.5 | Cc1csc(-c2nc(N)c3cc(C(=O)N4CCOCC4)sc3n2)n1 [Example 3, [4-Amino-2-(4-methyl-thiazol-2-yl)-thieno[2,3-d]pyrimidin-6-yl]-morpholin-4-yl-methanone]
7 | 167 | 11 | 12 | Cc1ccc(-c2nc(N)c3cc(C(=O)N4CCOCC4)sc3n2)o1 [Example 5, [4-Amino-2-(5-methyl-furan-2-yl)-thieno[2,3-d]pyrimidin-6-yl]-morpholin-4-yl-methanone]
8 | 522 | 236 | – | CC(C)c1ccc(-c2nc(N)c3cc(C(=O)N4CCOCC4)sc3n2)o1 [Example 30, [4-Amino-2-(5-isopropyl-furan-2-yl)-thieno[2,3-d]pyrimidin-6-yl]-morpholin-4-yl-methanone]
